According to patent publication US20250108064A1, “PHOSPHATE PRODRUGS OF CANNABINOIDS” (priority 2021, published 2025):

Assays:
[1] = physchem; format: physicochemical; conditions: aqueous buffer, kinetic from dmso stock; nephelometry, PBS pH 7.0-7.3, 1% DMSO, 25° C., 90 min
Experimental: General Experimental: Nephelometry experiments were performed using untreated Corning® Costar® 96-well black polystyrene plates with clear flat bottoms. Sample stock solutions and serial dilutions were prepared with DriSolv® DMSO purchased from MilliporeSigma. All 100-fold dilutions and replicate experiments were prepared using Gibco® Dulbecco's phosphate-buffered saline (DPBS, no calcium, no magnesium) with a pH range of 7.0-7.3 as aqueous media. […] Nephelometry data was obtained using a NEPHELOstar® microplate reader and processed with MARS data analysis software from BMG LabTech.
Procedure for Nephelometry Experiments: Tested compounds were dissolved in 100% DMSO to make stock solutions of specified concentrations, ranging from 10 mM minimum up to 50 mM maximum. The sample then underwent serial dilution in a 96-well plate (Corning® Costar®). Well A1 of the plate contained 100% DMSO. […] Using a 12 channel multichannel pipette, 2.5 μL of sample from row A was transferred to each well in row B through row H of the plate. Next, 30 μL of PBS (pH=7.0-7.3) was added to row B through row H, providing each well with 32.5 μL. The plate was then incubated for 30 sec with shaking. Finally, 217.5 μL of PBS buffer was added to row B through row H, and the entire plate was incubated with shaking at 25° C. for 90 min. Note: The final volume of DMSO in actual experiments with PBS buffer was 1% throughout the plate. After 90 min, the 96-well plate was analyzed with a NEPHELOstar® instrument and the data was processed with MARS data analysis software.

[2] = Liver microsome stability assay (HLM); format: in vitro ADME; conditions: human, microsomes, pH 7.4; 3 μM test compound, NADPH; read-out: T½ in HLM
Experimental: General Experimental: Human and mouse liver microsomes were purchased from Xenotech at 20 mg/mL. NADPH (Sigma-Aldrich) 10 mM stocks were prepared in deionized water.
Procedure for Liver Microsome Stability Assay: Test compounds and positive controls were dissolved in 100% DMSO to make 10 mM stock solutions. Verapamil (Sigma-Aldrich) and diphenhydramine (Sigma-Aldrich) were used as positive controls for both human liver microsomes (HLM) and mouse liver microsomes (MLM). The 10 mM stock solutions of test and control compounds were further diluted in potassium phosphate buffer (100 mM, pH 7.4) to 500 μM to ensure that the organic solvent content was <0.2%. The liver microsome (HLM or MLM) assay was prepared in a 1.5 mL Eppendorf tube with a final volume of 1100 μL for duplicate runs. Each reaction contained phosphate buffer (928.4 μL), liver microsomes (55 μL), and test compound (6.6 μL of 500 μM), resulting in a final concentration of 3 μM for the test compound. The reaction was initiated with 110 μL of 10 mM NADPH. Aliquots (100 μL) were removed in duplicate at 0, 5, 10, 15, and 30 min and quenched in […] of 100% cold methanol which contained internal standard (ISTD: d5-7-ethoxy coumarin 2 μM). The aliquots were centrifuged at 12,000 g for 5 min, and the supernatant was transferred and placed in an LC-MS vial. Each time point was assessed by LC-MS/MS, and the area under the m/z curve (AUC), based on the MRM transition, was integrated w.r.t the ISTD. Positive controls were conducted at a final volume of 550 μL to enable a single run for each time point. Negative controls in the absence of NADPH were performed with the test and control compounds, respectively, at a final volume of 150 μL and measured at the most prolonged time point. Control compounds were processed and analyzed like test compounds. Each time point was run in triplicates on LC-MS/MS followed by in-between blank washes to avoid the carryover and to equilibrate the column. Half-life (T1/2) was calculated using the data obtained from LC-MS/MS and by plotting ln (% remaining of the parent prodrug) versus time and performing linear regression to determine slope. Slope=−k and T1/2=0.693/k for first-order kinetics.

[3] = Plasma stability assay (human plasma); format: in vitro ADME; conditions: 37° C., read-out: T½ in human plasma (converted)
Experimental: General Experimental: Procaine and Procainamide were purchased from Sigma-Aldrich. Human plasma was obtained from BioIVT (Cat. No. […]2N) and 1X Dulbecco's PBS (pH 7.4, Gibco) was obtained from Thermos Fischer. Stock solutions were prepared in 100% DMSO, and suitable dilutions of target analytes were prepared in methanol for method development.
Procedure for Plasma Stability Assay: Test compounds were dissolved in DMSO to make a stock solution of 10 mM and then diluted to 500 μM in buffer (or 70% MeOH). Human plasma was thawed at ambient temperature and is aliquoted ([…]) to a 1.5 mL Eppendorf tube in duplicates (A and B) for each compound. Plasma was incubated at 37° C. for 10 minutes in an incubator shaker at 150 rpm; the reaction was initiated by the addition of the test compound (6.0 μL) and vortex mixing. The total reaction volume was 1000 μL where the final organic solvent concentrations were 0.6% MeOH and 0.03% DMSO. The spiked plasma samples were incubated at 37° C. for 4 hrs. The reactions were terminated at time points 0, 15, 30, 60, 120, 180, and 240 min by taking a 100 μL aliquot from the test incubation mixture and immediately quenching it in ice-cold acetonitrile containing internal standard (150 μL with 2 μM ISTD), followed by a quick vortex mixing. In addition, matrix blank was prepared by adding acetonitrile solutions containing ISTD to plasma samples without any of the analytes or control compounds. Also, an additional tube was made to measure compound degradation in PBS buffer. The samples were centrifuged at 15000 rpm for 25 min at 4° C. The supernatant was transferred to an LC-MS vial for analysis by LC/MS-MS. Each time point was run in duplicates followed by in-between blank washes to avoid the carryover and to equilibrate the column. Half-life (T1/2) was calculated using the data obtained from LC-MS/MS and by plotting ln (% remaining of the parent prodrug) versus time and performing linear regression to determine slope. Slope=−k and T1/2=0.693/k for first-order kinetics.
These positive controls were run in parallel to test the systems for competency.

| Structure (SMILES) | solubility [1] [µM] | half-life [2] [min] | half-life [3] [min] | half-life ([3]; unit min) [min] |
| --- | --- | --- | --- | --- |
| C=C(C)[C@@H]1CCC(C)=C[C@H]1c1c(O)cc(CCCCC)cc1OC(=O)C1CC(OP(=O)(O)O)C1.N.N (stereo partly drawn) [7c, 3-((((1′R,2′R)-6-hydroxy-5′-methyl-4-pentyl-2′-(prop-1-en-2-yl)-1′,2′,3′,4′-tetrahydro-[1,1′-biphenyl]-2-yl)oxy)carbonyl)cyclobutyl phosphate di-ammonium salt] | > 500 | 53 | 432 |  |
| C=C(C)[C@@H]1CCC(C)=C[C@H]1c1c(O)cc(CCCCC)cc1OC(=O)C(C)OP(=O)(O)O.N.N (stereo partly drawn) [7d, 1-(((1′R,2′R)-6-hydroxy-5′-methyl-4-pentyl-2′-(prop-1-en-2-yl)-1′,2′,3′,4′-tetrahydro-[1,1′-biphenyl]-2-yl)oxy)-1-oxopropan-2-yl phosphate di-ammonium salt] | > 500 | 50 |  | 21 |
| C=C(C)[C@@H]1CCC(C)=C[C@H]1c1c(O)cc(CCCCC)cc1OC(=O)C(C)(C)OP(=O)(O)O.N.N [7e, 1-(((1′R,2′R)-6-hydroxy-5′-methyl-4-pentyl-2′-(prop-1-en-2-yl)-1′,2′,3′,4′-tetrahydro-[1,1′-biphenyl]-2-yl)oxy)-2-methyl-1-oxopropan-2-yl phosphate di-ammonium salt] | > 500 |  |  | 24 |
| C=C(C)[C@@H]1CCC(C)=C[C@H]1c1c(O)cc(CCCCC)cc1OC(=O)C1(OP(=O)(O)OC(C)C)CC1.N [14a, 1-((((1′R,2′R)-6-hydroxy-5′-methyl-4-pentyl-2′-(prop-1-en-2-yl)-1′,2′,3′,4′-tetrahydro-[1,1′-biphenyl]-2-yl)oxy)carbonyl)cyclopropyl isopropyl phosphate ammonium salt] | > 500 | 13 | > 180 |  |
| C=C(C)[C@@H]1CCC(C)=C[C@H]1c1c(O)cc(CCCCC)cc1OC(=O)C1(OP(=O)(O)OCCCCC)CC1.N [14b, 1-((((1′R,2′R)-6-hydroxy-5′-methyl-4-pentyl-2′-(prop-1-en-2-yl)-1′,2′,3′,4′-tetrahydro-[1,1′-biphenyl]-2-yl)oxy)carbonyl)cyclopropyl pentyl phosphate ammonium salt] | 276 ± 4.52 | 24 | 576 |  |
| C=C(C)[C@@H]1CCC(C)=C[C@H]1c1c(O)cc(CCCCC)cc1OC(=O)C1(OP(=O)(O)OCCC(C)C)CC1.N [14c, 1-((((1′R,2′R)-6-hydroxy-5′-methyl-4-pentyl-2′-(prop-1-en-2-yl)-1′,2′,3′,4′-tetrahydro-[1,1′-biphenyl]-2-yl)oxy)carbonyl)cyclopropyl isopentyl phosphate ammonium salt] | 345 ± 4.51 | 24 | > 240 |  |
| C=C(C)[C@@H]1CCC(C)=C[C@H]1c1c(O)cc(CCCCC)cc1OC(=O)C1(OP(=O)(O)OCCCCCC)CC1.N [14d, hexyl (1-((((1′R,2′R)-6-hydroxy-5′-methyl-4-pentyl-2′-(prop-1-en-2-yl)-1′,2′,3′,4′-tetrahydro-[1,1′-biphenyl]-2-yl)oxy)carbonyl)cyclopropyl) phosphate ammonium salt] | 98 ± 1.24 | 32 | > 240 |  |
| C=C(C)[C@@H]1CCC(C)=C[C@H]1c1c(O)cc(CCCCC)cc1OC(=O)C1(OP(=O)(O)OCCCCCCC)CC1.N [14e, heptyl (1-((((1′R,2′R)-6-hydroxy-5′-methyl-4-pentyl-2′-(prop-1-en-2-yl)-1′,2′,3′,4′-tetrahydro-[1,1′-biphenyl]-2-yl)oxy)carbonyl)cyclopropyl) phosphate ammonium salt] | 57 ± 1.24 | 45 | > 240 |  |
| C=C(C)[C@@H]1CCC(C)=C[C@H]1c1c(O)cc(CCCCC)cc1OC(=O)C1(OP(=O)(O)OCCCCCCCCC)CC1.N [14f, 1-((((1′R,2′R)-6-hydroxy-5′-methyl-4-pentyl-2′-(prop-1-en-2-yl)-1′,2′,3′,4′-tetrahydro-[1,1′-biphenyl]-2-yl)oxy)carbonyl)cyclopropyl nonyl phosphate ammonium salt] | 67 ± 5.98 | > 30 | > 240 |  |
| C=C(C)[C@@H]1CCC(C)=C[C@H]1c1c(O)cc(CCCCC)cc1OC(=O)C1(OP(=O)(O)OCCCCCCCCCC)CC1.N [14g, decyl (1-((((1′R,2′R)-6-hydroxy-5′-methyl-4-pentyl-2′-(prop-1-en-2-yl)-1′,2′,3′,4′-tetrahydro-[1,1′-biphenyl]-2-yl)oxy)carbonyl)cyclopropyl) phosphate ammonium salt] | 75 ± 2.14 | > 30 | > 240 |  |
| C=C(C)[C@@H]1CCC(C)=C[C@H]1c1c(O)cc(CCCCC)cc1OC(=O)C1(OP(=O)(O)OCC(CCC)CCC)CC1.N [14h, 1-((((1′R,2′R)-6-hydroxy-5′-methyl-4-pentyl-2′-(prop-1-en-2-yl)-1′,2′,3′,4′-tetrahydro-[1,1′-biphenyl]-2-yl)oxy)carbonyl)cyclopropyl (2-propylpentyl) phosphate ammonium salt] | 66 ± 3.17 | 26 | > 240 |  |
| C=C(C)[C@@H]1CCC(C)=C[C@H]1c1c(O)cc(CCCCC)cc1OC(=O)C1(OP(=O)(O)OCCOC)CC1.N [14i, 1-((((1′R,2′R)-6-hydroxy-5′-methyl-4-pentyl-2′-(prop-1-en-2-yl)-1′,2′,3′,4′-tetrahydro-[1,1′-biphenyl]-2-yl)oxy)carbonyl)cyclopropyl (2-methoxyethyl) phosphate ammonium salt] | > 500 | 19 | > 240 |  |
| C=C(C)[C@@H]1CCC(C)=C[C@H]1c1c(O)cc(CCCCC)cc1OC(=O)OCOP(=O)(O)O.N.N [compound 24, (1′R,2′R)-6-hydroxy-5′-methyl-4-pentyl-2′-(prop-1-en-2-yl)-1′,2′,3′,4′-tetrahydro-[1,1′-biphenyl]-2-yl ((phosphonooxy)methyl) carbonate di-ammonium salt] | > 500 |  | > 240 |  |
